From ChEMBL document CHEMBL1275603, “Incidence and antimicrobial susceptibility of Escherichia coli and Klebsiella pneumoniae with extended-spectrum beta-lactamases in community- and hospital-associated intra-abdominal infections in Europe: results of the 2008 Study for Monitoring Antimicrobial Resistance Trends (SMART)” (2010)

Experiments:
Type in all cases: functional
Klebsiella pneumoniae [1] = assay: Antimicrobial activity against hospital-acquired Klebsiella pneumoniae obtained from patient with intra-abdominal infection assessed as susceptible isolates by EUCAST method
Escherichia coli [2] = assay: Antimicrobial activity against community-acquired Escherichia coli obtained from patient with intra-abdominal infection assessed as susceptible isolates by EUCAST method
Klebsiella pneumoniae [3] = assay: Antimicrobial activity against community-acquired Klebsiella pneumoniae expressing extended spectrum beta-lactamase obtained from patient with intra-abdominal infection assessed as susceptible isolates by EUCAST method
Escherichia coli [4] = assay: Antimicrobial activity against community-acquired Escherichia coli expressing extended spectrum beta-lactamase obtained from patient with intra-abdominal infection assessed as susceptible isolates by EUCAST method
Klebsiella pneumoniae [5] = assay: Antimicrobial activity against community-acquired Klebsiella pneumoniae obtained from patient with intra-abdominal infection assessed as susceptible isolates by EUCAST method
Escherichia coli [6] = assay: Antimicrobial activity against hospital-acquired Escherichia coli expressing extended spectrum beta-lactamase obtained from patient with intra-abdominal infection assessed as susceptible isolates by EUCAST method
Escherichia coli [7] = assay: Antimicrobial activity against hospital-acquired Escherichia coli obtained from patient with intra-abdominal infection assessed as susceptible isolates by EUCAST method
Klebsiella pneumoniae [8] = assay: Antimicrobial activity against hospital-acquired Klebsiella pneumoniae expressing extended spectrum beta-lactamase obtained from patient with intra-abdominal infection assessed as susceptible isolates by EUCAST method
Klebsiella pneumoniae [9] = assay: Antimicrobial activity against hospital-acquired Klebsiella pneumoniae obtained from patient with intra-abdominal infection assessed as susceptible isolates by EUCAST method in presence of beta-lactamase inhibitor Sulbactam
Klebsiella pneumoniae [10] = assay: Antimicrobial activity against community-acquired Klebsiella pneumoniae expressing extended spectrum beta-lactamase obtained from patient with intra-abdominal infection assessed as susceptible isolates by EUCAST method in presence of beta-lactamase inhibitor Sulbactam
Escherichia coli [11] = assay: Antimicrobial activity against community-acquired Escherichia coli obtained from patient with intra-abdominal infection assessed as susceptible isolates by EUCAST method in presence of beta-lactamase inhibitor Sulbactam
Klebsiella pneumoniae [12] = assay: Antimicrobial activity against hospital-acquired Klebsiella pneumoniae expressing extended spectrum beta-lactamase obtained from patient with intra-abdominal infection assessed as susceptible isolates by EUCAST method in presence of beta-lactamase inhibitor Sulbactam
Escherichia coli [13] = assay: Antimicrobial activity against hospital-acquired Escherichia coli obtained from patient with intra-abdominal infection assessed as susceptible isolates by EUCAST method in presence of beta-lactamase inhibitor Sulbactam
Klebsiella pneumoniae [14] = assay: Antimicrobial activity against community-acquired Klebsiella pneumoniae obtained from patient with intra-abdominal infection assessed as susceptible isolates by EUCAST method in presence of beta-lactamase inhibitor Sulbactam
Escherichia coli [15] = assay: Antimicrobial activity against community-acquired Escherichia coli expressing extended spectrum beta-lactamase obtained from patient with intra-abdominal infection assessed as susceptible isolates by EUCAST method in presence of beta-lactamase inhibitor Sulbactam
Escherichia coli [16] = assay: Antimicrobial activity against hospital-acquired Escherichia coli expressing extended spectrum beta-lactamase obtained from patient with intra-abdominal infection assessed as susceptible isolates by EUCAST method in presence of beta-lactamase inhibitor Sulbactam

Compound	Activity (Klebsiella pneumoniae [1])	Activity (Escherichia coli [2])	Activity (Klebsiella pneumoniae [3])	Activity (Escherichia coli [4])	Activity (Klebsiella pneumoniae [5])	Activity (Escherichia coli [6])	Activity (Escherichia coli [7])	Activity (Klebsiella pneumoniae [8])	Activity (Klebsiella pneumoniae [9])	Activity (Klebsiella pneumoniae [10])	Activity (Escherichia coli [11])	Activity (Klebsiella pneumoniae [12])	Activity (Escherichia coli [13])	Activity (Klebsiella pneumoniae [14])	Activity (Escherichia coli [15])	Activity (Escherichia coli [16])
NCC[C@H](O)C(=O)N[C@@H]1C[C@H](N)[C@@H](O[C@H]2O[C@H](CN)[C@@H](O)[C@H](O)[C@H]2O)[C@H](O)[C@H]1O[C@H]1O[C@H](CO)[C@@H](O)[C@H](N)[C@H]1O [AMIKACIN]	92.7%	98.5%	75%	59.5%	98.6%	53.7%	97%	66%	–	–	–	–	–	–	–	–
CC1(C)S[C@@H]2[C@H](NC(=O)[C@H](N)c3ccccc3)C(=O)N2[C@H]1C(=O)O [AMPICILLIN]	–	–	–	–	–	–	–	–	62.9%	0%	53%	6.4%	44.5%	79.2%	5.4%	9.1%
CO/N=C(\C(=O)N[C@@H]1C(=O)N2C(C(=O)[O-])=C(C[N+]3(C)CCCC3)CS[C@H]12)c1csc(N)n1 [CEFEPIME]	91.6%	98.5%	0%	8.1%	98.6%	9.9%	–	10.6%	–	–	–	–	–	–	–	–
CO/N=C(\C(=O)N[C@@H]1C(=O)N2C(C(=O)O)=C(COC(C)=O)CS[C@H]12)c1csc(N)n1 [CEFOTAXIME]	92.1%	98.7%	0%	0%	100%	3.3%	95.8%	6.4%	–	–	–	–	–	–	–	–
CC(C)(O/N=C(\C(=O)N[C@@H]1C(=O)N2C(C(=O)[O-])=C(C[n+]3ccccc3)CS[C@H]12)c1csc(N)n1)C(=O)O [CEFTAZIDIME]	91%	97.2%	0%	8.1%	98.6%	5.8%	94.3%	0%	–	–	–	–	–	–	–	–
CO/N=C(\C(=O)N[C@@H]1C(=O)N2C(C(=O)O)=C(CSc3nc(=O)c(O)nn3C)CS[C@H]12)c1csc(N)n1 [CEFTRIAXONE]	90.5%	98.3%	0%	2.7%	98.6%	3.3%	95.8%	4.3%	–	–	–	–	–	–	–	–
O=C(O)c1cn(C2CC2)c2cc(N3CCNCC3)c(F)cc2c1=O [CIPROFLOXACIN]	79.2%	–	50%	29.7%	94.4%	22.3%	78.3%	29.8%	–	–	–	–	–	–	–	–
C[C@@H](O)[C@H]1C(=O)N2C(C(=O)O)=C(S[C@@H]3CN[C@H](C(=O)Nc4cccc(C(=O)O)c4)C3)[C@H](C)[C@H]12 [ERTAPENEM]	93.3%	99.3%	100%	100%	100%	99.2%	98.9%	83%	–	–	–	–	–	–	–	–
C[C@@H](O)[C@H]1C(=O)N2C(C(=O)O)=C(SCCNC=N)C[C@H]12 [IMIPENEM ANHYDROUS]	94.9%	99.8%	100%	100%	100%	100%	99.6%	89.4%	–	–	–	–	–	–	–	–
C[C@H]1COc2c(N3CCN(C)CC3)c(F)cc3c(=O)c(C(=O)O)cn1c23.C[C@H]1COc2c(N3CCN(C)CC3)c(F)cc3c(=O)c(C(=O)O)cn1c23.O [LEVOFLOXACIN]	83.2%	87%	50%	32.4%	97.2%	24.8%	79.8%	40.4%	–	–	–	–	–	–	–	–
